Where a SMILES comes first, the peptide text is derived from it.
Assays:
[1] = tested on: E. coli MDR 1057 P1; settings: Table 2; broth microdilution in MHB (medium ±0.9% NaCl not given), 0.1% BSA, 24 h, 37 °C; median of at least three independent experiments in triplicate
[2] = tested on: E. coli MDR 1057 B2; settings: Table 2; broth microdilution in MHB (medium ±0.9% NaCl not given), 0.1% BSA, 24 h, 37 °C; median of at least three independent experiments in triplicate
[3] = tested on: E. coli MDR 1057 WT; settings: Table 2; broth microdilution in MHB (medium ±0.9% NaCl not given), 10^6 CFU/mL suspension, agents diluted in 0.1% BSA, 24 h, 37 °C, visible turbidity; median of at least three independent experiments in triplicate
[4] = tested on: E. coli MDR 1057 B3; settings: Table 2; broth microdilution in MHB (medium ±0.9% NaCl not given), 0.1% BSA, 24 h, 37 °C; median of at least three independent experiments in triplicate

## CC(C)C[C@H](NC(=O)[C@H](CCCNC(=N)N)NC(=O)[C@@H]1CCCN1C(=O)[C@@H]1CCCN1C(=O)[C@H](Cc1ccccc1)NC(=O)[C@H](Cc1ccccc1)NC(=O)[C@@H]1CCCN1C(=O)[C@@H]1CCCN1C(=O)[C@@H]1CCCN1C(=O)[C@H](CCCNC(=N)N)NC(=O)[C@@H]1CCCN1C(=O)[C@H](CCCNC(=N)N)NC(=O)[C@@H]1CCCN1C(=O)[C@H](CC(C)C)NC(=O)[C@H](Cc1ccc(O)cc1)NC(=O)[C@@H]1CCCN1C(=O)[C@@H]1CCCN1C(=O)[C@H](CCCNC(=N)N)NC(=O)[C@@H]1CCCN1C(=O)[C@H](CCCNC(=N)N)NC(=O)[C@H](CCCNC(=N)N)NC(=O)[C@@H](N)CCCNC(=N)N)C(=O)O [PR-39_1-22] (H-RRRPRPPYLPRPRPPPFFPPRL-OH)
[1]
  Minimum Inhibitory Concentration, P1: 16 µM
[2]
  Minimum Inhibitory Concentration, B2: >32 µM
[3]
  Minimum Inhibitory Concentration, WT: 2 µM
[4]
  Minimum Inhibitory Concentration, B3: >32 µM

## CC[C@H](C)[C@H](NC(=O)[C@@H]1CCCN1C(=O)CNC(=O)[C@@H](NC(=O)[C@H](Cc1ccccc1)NC(=O)[C@@H]1CCCN1C(=O)CNC(=O)[C@@H](NC(=O)[C@H](CCCCN)NC(=O)[C@H](Cc1c[nH]cn1)NC(=O)[C@H](Cc1c[nH]c2ccccc12)NC(=O)[C@H](CC(C)C)NC(=O)[C@H](CCCNC(=N)N)NC(=O)[C@H](CCCCN)NC(=O)[C@H](CC(C)C)NC(=O)[C@H](CCCCN)NC(=O)[C@H](CCCCN)NC(=O)[C@H](CCCNC(=N)N)NC(=O)[C@H](Cc1ccccc1)NC(=O)[C@H](CCCNC(=N)N)NC(=O)[C@H](CCCCN)NC(=O)[C@H](Cc1ccccc1)NC(=O)[C@H](CCCNC(=N)N)NC(=O)CN)C(C)C)C(C)C)C(=O)N[C@@H](CC(C)C)C(=O)N[C@@H](Cc1c[nH]cn1)C(=O)N[C@@H](Cc1ccc(O)cc1)C(=O)O [ChMAP-28] (H-GRFKRFRKKLKRLWHKVGPFVGPILHY-OH)
[1]
  Minimum Inhibitory Concentration, P1: 0.063 µM
[2]
  Minimum Inhibitory Concentration, B2: 0.063 µM
[3]
  Minimum Inhibitory Concentration, WT: 0.063 µM
[4]
  Minimum Inhibitory Concentration, B3: 0.063 µM

## CC(C)C[C@H](NC(=O)[C@H](CCCNC(=N)N)NC(=O)[C@@H](N)CCCNC(=N)N)C(=O)N[C@@H](CCCNC(=N)N)C(=O)N1CCC[C@H]1C(=O)N[C@@H](CCCNC(=N)N)C(=O)N[C@@H](CCCNC(=N)N)C(=O)N1CCC[C@H]1C(=O)N[C@@H](CCCNC(=N)N)C(=O)N[C@@H](CC(C)C)C(=O)N1CCC[C@H]1C(=O)N[C@@H](CCCNC(=N)N)C(=O)N1CCC[C@H]1C(=O)N[C@@H](CCCNC(=N)N)C(=O)N1CCC[C@H]1C(=O)N[C@@H](CCCNC(=N)N)C(=O)N1CCC[C@H]1C(=O)N[C@@H](CCCNC(=N)N)C(=O)N1CCC[C@H]1C(=O)N[C@@H](CCCNC(=N)N)C(=O)N1CCC[C@H]1C(=O)N[C@@H](CCCNC(=N)N)C(=O)O [mini-ChBac7.5Nα] (H-RRLRPRRPRLPRPRPRPRPRPR-OH)
[1]
  Minimum Inhibitory Concentration, P1: >32 µM
[2]
  Minimum Inhibitory Concentration, B2: >32 µM
[3]
  Minimum Inhibitory Concentration, WT: 8 µM
[4]
  Minimum Inhibitory Concentration, B3: >32 µM

— article PMC10145973, “Genomic Insights into Bacterial Resistance to Proline-Rich Antimicrobial Peptide Bac7” (Membranes, 2023)
